Results published in patent publication US20260092061A1, “COMPOUNDS FOR TARGETED PROTEIN DEGRADATION” (Amphista Therapeutics Limited, priority 2022, published 2026).

Biological target: T1, BRD9 (Homo sapiens, UniProt Q9H8M2)
T1 sequence (Q9H8M2 1-597): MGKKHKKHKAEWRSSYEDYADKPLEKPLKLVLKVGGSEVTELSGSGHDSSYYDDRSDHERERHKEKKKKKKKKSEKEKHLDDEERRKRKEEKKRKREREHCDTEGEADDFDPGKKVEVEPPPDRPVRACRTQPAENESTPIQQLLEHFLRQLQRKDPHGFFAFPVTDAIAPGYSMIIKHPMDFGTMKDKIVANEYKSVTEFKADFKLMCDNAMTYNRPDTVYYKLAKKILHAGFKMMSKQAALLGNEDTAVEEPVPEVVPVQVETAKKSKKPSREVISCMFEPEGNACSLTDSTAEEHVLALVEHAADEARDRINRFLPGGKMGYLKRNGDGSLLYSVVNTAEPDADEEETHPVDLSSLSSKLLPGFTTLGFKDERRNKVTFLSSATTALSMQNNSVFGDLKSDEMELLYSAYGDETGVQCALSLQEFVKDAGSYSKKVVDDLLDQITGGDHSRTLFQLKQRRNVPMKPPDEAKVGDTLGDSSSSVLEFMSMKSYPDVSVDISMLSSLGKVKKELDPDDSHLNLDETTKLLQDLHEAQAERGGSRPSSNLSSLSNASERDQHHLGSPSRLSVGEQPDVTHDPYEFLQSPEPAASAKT
Test: Degradation of BRD9 (IF), immunofluorescence in MV4-11 cells, 24 hours (Assay Protocol 2)
Assay type: cell-based
Design: A suspension of MV4-11 cells (ATCC CRL-9591) was prepared; host or cells: MV4-11
Conditions: BRD9 degradation; for DC50: Assay protocol 2, read-out: DC50; for Dmax: MV4-11, Assay protocol 2, read-out: Dmax
Summary of the method: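 MV4-11 cells treated with compound 24 h at 37° C., then fixed, permeabilised and immunostained for BRD9 (anti-BRD9 E4Q3F, Alexa 647 secondary, Hoechst counterstain). High-content imaging quantified nuclear BRD9 signal; % BRD9 remaining normalised to DMSO and 100 nM CFT-8634 controls.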

Compound	DC50 [nM]	Dmax [%]
CC[C@@H]1CN(Cc2cccc3c2CCN(C(=O)/C(C#N)=C/C(C)(C)C)C3C)CCN1Cc1c(OC)cc(-c2cn(C)c(=O)c(C)c2C)cc1OC (mixture of isomers) [Compound B120, (E/Z)-2-(5-(((R)-4-(2,6-dimethoxy-4-(1,4,5-trimethyl-6-oxo-1,6-dihydropyridin-3-yl)benzyl)-3-ethylpiperazin-1-yl)methyl)-1-methyl-1,2,3,4-tetrahydroisoquinoline-2-carbonyl)-4,4-dimethylpent-2-enenitrile]	1.25 to 10	70 to 75
COc1cc(-c2cn(C)c(=O)c(C)c2C)cc(OC)c1CN1C[C@H](C)N(Cc2cccc3c2CCN(C(=O)/C(C#N)=C/C(C)(C)C)C3C)C[C@@H]1C (mixture of isomers) [Compound B121, (E/Z)-2-(5-(((2S,5S)-4-(2,6-dimethoxy-4-(1,4,5-trimethyl-6-oxo-1,6-dihydropyridin-3-yl)benzyl)-2,5-dimethylpiperazin-1-yl)methyl)-1-methyl-1,2,3,4-tetrahydroisoquinoline-2-carbonyl)-4,4-dimethylpent-2-enenitrile]	25 to 1000	40 to 70
COc1cc(-c2cn(C)c(=O)c(C)c2C)cc(OC)c1CN1CCN(Cc2cccc3c2CCN(C(=O)/C(C#N)=C/C(C)(C)C)C3C)C2(CCC2)C1 (mixture of isomers) [Compound B130, (E/Z)-2-(5-((8-(2,6-dimethoxy-4-(1,4,5-trimethyl-6-oxo-1,6-dihydropyridin-3-yl)benzyl)-5,8-diazaspiro[3.5]nonan-5-yl)methyl)-1-methyl-1,2,3,4-tetrahydroisoquinoline-2-carbonyl)-4,4-dimethylpent-2-enenitrile]	10 to 25	> 75
COc1cc(-c2cn(C)c(=O)c(C)c2C)cc(OC)c1CN1CCN(Cc2cccc3c2CCN(C(=O)/C(C#N)=C/c2cccc(Br)n2)C3C)C(C(C)C)C1 (mixture of isomers) [Compound B131, (E/Z)-3-(6-bromopyridin-2-yl)-2-(5-((4-(2,6-dimethoxy-4-(1,4,5-trimethyl-6-oxo-1,6-dihydropyridin-3-yl)benzyl)-2-isopropylpiperazin-1-yl)methyl)-1-methyl-1,2,3,4-tetrahydroisoquinoline-2-carbonyl)acrylonitrile]	1.25 to 10	> 75
COc1cc(-c2cn(C)c(=O)c(C)c2C)cc(OC)c1CN1CC[C@H](Oc2cccc3c2CCN(C(=O)/C(C#N)=C/C(C)(C)C)C3C)C1 (mixture of isomers) [Compound B133, (E/Z)-2-(5-(((R)-1-(2,6-dimethoxy-4-(1,4,5-trimethyl-6-oxo-1,6-dihydropyridin-3-yl)benzyl)pyrrolidin-3-yl)oxy)-1-methyl-1,2,3,4-tetrahydroisoquinoline-2-carbonyl)-4,4-dimethylpent-2-enenitrile]	10 to 25	40 to 70
CC[C@H]1CN(Cc2cccc3c2CCN(C(=O)/C(C#N)=C/C(C)(C)C)C3C)CCN1Cc1c(OC)cc(-c2cn(C)c(=O)c(C)c2C)cc1OC (mixture of isomers) [Compound B135, (E/Z)-2-(5-(((S)-4-(2,6-dimethoxy-4-(1,4,5-trimethyl-6-oxo-1,6-dihydropyridin-3-yl)benzyl)-3-ethylpiperazin-1-yl)methyl)-1-methyl-1,2,3,4-tetrahydroisoquinoline-2-carbonyl)-4,4-dimethylpent-2-enenitrile]	1.25 to 10	> 75
COc1cc(-c2cn(C)c(=O)c(C)c2C)cc(OC)c1CN1CCN(Cc2cccc3c2CCN(C(=O)/C(C#N)=C/C(C)(C)C)C3C)C(C(C)C)C1 (mixture of isomers) [Compound B136, (E/Z)-2-(5-((4-(2,6-dimethoxy-4-(1,4,5-trimethyl-6-oxo-1,6-dihydropyridin-3-yl)benzyl)-2-isopropylpiperazin-1-yl)methyl)-1-methyl-1,2,3,4-tetrahydroisoquinoline-2-carbonyl)-4,4-dimethylpent-2-enenitrile]	1.25 to 10	> 75
COc1cc(-c2cn(C)c(=O)c(C)c2C)cc(OC)c1CN1CCN(Cc2cccc3c2CCN(C(=O)/C(C#N)=C/C2CCOCC2)C3C)C2(CC2)C1 (mixture of isomers) [Compound B137, (E/Z)-2-(5-((7-(2,6-dimethoxy-4-(1,4,5-trimethyl-6-oxo-1,6-dihydropyridin-3-yl)benzyl)-4,7-diazaspiro[2.5]octan-4-yl)methyl)-1-methyl-1,2,3,4-tetrahydroisoquinoline-2-carbonyl)-3-(tetrahydro-2H-pyran-4-yl)acrylonitrile]	1.25 to 10	> 75
COc1cc(-c2cn(C)c(=O)c(C)c2C)cc(OC)c1CN1CCN(Cc2cccc3c2CCN(C(=O)/C(C#N)=C/C(C)(C)C(F)F)C3C)C2(CC2)C1 (mixture of isomers) [Compound B138, (E/Z)-2-(5-((7-(2,6-dimethoxy-4-(1,4,5-trimethyl-6-oxo-1,6-dihydropyridin-3-yl)benzyl)-4,7-diazaspiro[2.5]octan-4-yl)methyl)-1-methyl-1,2,3,4-tetrahydroisoquinoline-2-carbonyl)-5,5-difluoro-4,4-dimethylpent-2-enenitrile]	< 1.25	> 75
CC[C@@H]1CN(Cc2c(OC)cc(-c3cn(C)c(=O)c(C)c3C)cc2OC)CCN1Cc1cccc2c1CCN(C(=O)/C(C#N)=C/C(C)(C)C)C2C (mixture of isomers) [Compound B139, (E/Z)-2-(5-(((R)-4-(2,6-dimethoxy-4-(1,4,5-trimethyl-6-oxo-1,6-dihydropyridin-3-yl)benzyl)-2-ethylpiperazin-1-yl)methyl)-1-methyl-1,2,3,4-tetrahydroisoquinoline-2-carbonyl)-4,4-dimethylpent-2-enenitrile]	10 to 25	70 to 75
COc1cc(-c2cn(C)c(=O)c(C)c2C)cc(OC)c1CN1CCN(Cc2cccc3c2CCN(C(=O)/C(C#N)=C/C(C)(C)F)C3C)C2(CC2)C1 (mixture of isomers) [Compound B140, (E/Z)-2-[5-[[7-[[2,6-dimethoxy-4-(1,4,5-trimethyl-6-oxo-3-pyridyl)phenyl]methyl]-4,7-diazaspiro[2.5]octan-4-yl]methyl]-1-methyl-3,4-dihydro-1H-isoquinoline-2-carbonyl]-4-fluoro-4-methyl-pent-2-enenitrile]	< 1.25	> 75
COc1cc(-c2cn(C)c(=O)c(C)c2C)cc(OC)c1CN1CCN(Cc2cccc3c2CCN(C(=O)/C(C#N)=C\C24CC(OC)(C2)C4)C3C)C2(CC2)C1 (mixture of isomers) [Compound B141, (E/Z)-2-(5-((7-(2,6-dimethoxy-4-(1,4,5-trimethyl-6-oxo-1,6-dihydropyridin-3-yl)benzyl)-4,7-diazaspiro[2.5]octan-4-yl)methyl)-1-methyl-1,2,3,4-tetrahydroisoquinoline-2-carbonyl)-3-(3-methoxybicyclo[1.1.1]pentan-1-yl)acrylonitrile]	< 1.25	> 75
COc1cc(-c2cn(C)c(=O)c(C)c2C)cc(OC)c1CN1CCN(Cc2cccc3c2CCN(C(=O)/C(C#N)=C/C(C)(C)C)C3C)CC1=O (mixture of isomers) [Compound B142]	1.25 to 10	> 75
COc1cc(-c2cn(C)c(=O)c(C)c2C)cc(OC)c1CN1CCN(Cc2cccc3c2CCN(C(=O)/C(C#N)=C/C2(C)CCCCC2)C3C)C2(CC2)C1 (mixture of isomers) [Compound B143, (E/Z)-2-(5-((7-(2,6-dimethoxy-4-(1,4,5-trimethyl-6-oxo-1,6-dihydropyridin-3-yl)benzyl)-4,7-diazaspiro[2.5]octan-4-yl)methyl)-1-methyl-1,2,3,4-tetrahydroisoquinoline-2-carbonyl)-3-(1-methylcyclohexyl)acrylonitrile]	10 to 25	70 to 75
COc1cc(-c2cn(C)c(=O)c(C)c2C)cc(OC)c1CN1CCN(Cc2cccc3c2CCN(C(=O)/C(C#N)=C/C2(CF)CC2)C3C)C2(CC2)C1 (mixture of isomers) [Compound B144, (E/Z)-2-(5-((7-(2,6-dimethoxy-4-(1,4,5-trimethyl-6-oxo-1,6-dihydropyridin-3-yl)benzyl)-4,7-diazaspiro[2.5]octan-4-yl)methyl)-1-methyl-1,2,3,4-tetrahydroisoquinoline-2-carbonyl)-3-(1-(fluoromethyl)cyclopropyl)acrylonitrile]	< 1.25	> 75
COc1cc(-c2cn(C)c(=O)c(C)c2C)cc(OC)c1CN1CCN(Cc2cccc3c2CCN(C(=O)/C(C#N)=C/C2(C)CCCC2)C3C)C2(CC2)C1 (mixture of isomers) [Compound B145, (E/Z)-2-(5-((7-(2,6-dimethoxy-4-(1,4,5-trimethyl-6-oxo-1,6-dihydropyridin-3-yl)benzyl)-4,7-diazaspiro[2.5]octan-4-yl)methyl)-1-methyl-1,2,3,4-tetrahydroisoquinoline-2-carbonyl)-3-(1-methylcyclopentyl)acrylonitrile]	< 1.25	> 75
